Test results as given in patent US11311632B2, “Viral vectors for prophylaxis and therapy of hemoglobinopathies” (Cornell University, priority 2015, dated 2022).
Like-named read-outs stand apart in the source and are kept apart here.

What was measured:
[1] = test system: CD34+-derived SCD erythroid cells; assay: Hemoglobin (HbF, HbS, HbA2) content by HPLC in differentiated CD34+-derived SCD erythroid cells; assay type: cell-based, human
Text: To obtain the data presented here, we used the lentiviral vector pCL-ZF-Ldb1, (FIG. 11, top vector map), which carries a zinc-finger protein that specifically binds the γ-globin promoters, fused to the self-association (SA) domain of Ldb1, as well as a green fluorescent protein under the control of the erythroid specific ankyrin promoter. […] Cell, 2014. 158(4): p. 849-60].
In particular, we analyzed the mRNA and protein content of erythroblasts derived from 10 SCD subjects. CD34+ cells isolated from peripheral blood mononuclear cells (PBMCs) were frozen and used for independent replicate experiments. Infection with pCL-ZF-Ldb1 was performed on pro-erythroblast within the first 10 days of the expansion phase.
A scheme of the experimental procedures is illustrated in FIG. 16. […] Exp Hematol, 2005. 33(12): p. […] J Clin Invest, 2008. 118(1): p. […] Nat Med, 2013. 19(3): p. 291-4]. Studies were performed on day 8 of differentiation phase, at the orthochromatophilic stage when high amounts of hemoglobin were accumulated.
(§1) CD34+ cells selection from blood samples was performed by immunomagnetic separation, using the CD34 microbeads kit (Miltenyi Biotec Inc., Auburn, Calif.). These cells were then expanded following a modified version of the protocol described by Leberbauer and colleagues. Cells were seeded in 5 mL of serum-free StemSpan with 50 μL of StemSpan CC-100 cytokine cocktail (both from Stemcell Technologies, Vancouver, BA, Canada), 2 U/mL Erytrhopoietin (Amgen, Thousand Oaks, Calif.), 10^-6 M dexamethasone (Sigma) and 1% penicillin streptomycin. CD34+ cultures were kept undifferentiated by refreshing the medium twice a week and density gradient centrifugation was used to remove both dead and spontaneously differentiating cells. At this stage cells were either frozen (with 50% characterized Hyclone FBS, 10% DMSO, Sigma, and 40% Iscove's Modified DMEM, Cellgro), or used for experiments. After 10 days in phase I, cells were transferred into phase II media containing α-modified essential medium supplemented with 30% fetal calf serum and 10^-5 M β-mercaptoethanol. Erythropoietin was added (5 U/mL) to stimulate erythroid differentiation.

SCD erythroblasts = assay: Erythroid cell count / viability (benzidine+ cells) of treated SCD erythroblasts; details: same treatments and doses as HbF induction comparison
Protocol: as §1

[2] = SCD erythroid cells, summary in description
[3] = day 8 of differentiation, same treatments and doses as net HbF increase

| Structure (SMILES) | net HbF increase [1] | induction of HbF (qualitative summary) [1, 2] | net HbS decrease [1, 3] | viability compared to untreated samples (SCD erythroblasts) | net HbS decrease ([1]; 192 h) | net HbF increase ([1]; 192 h, 30 µM) | induction of HbF (qualitative summary) [1] | net HbS decrease [1] |
| --- | --- | --- | --- | --- | --- | --- | --- | --- |
| CCCC(=O)[O-].[Na+] [butyrate, sodium butyrate] | 4.84%±5.03 | marginal HbF induction | −4.90%±7.94 | reduced viability |  |  |  |  |
| Nc1cccc2c1C(=O)N(C1CCC(=O)NC1=O)C2=O (stereo not shown) [pomalidomide] |  |  |  | reduced viability | 11.61−%±9.27 | 11.84%±9.02 |  |  |
| N[C@@H]1C[C@H]1c1ccccc1 (racemic) [tranyl-cypromine, tranylcypromine] | 8.08%±6.28 |  |  |  |  |  | intermediate effect | −6.93%±6.64 |
| NC(=O)NO [hydroxyurea] |  | marginal HbF induction | −3.48%±4.68 | reduced viability |  |  |  |  |
